The record followed here is US8927023B2, “Biocompatible, non-biodegradable, non-toxic polymer useful for nanoparticle pharmaceutical compositions” (Fresenius Kabi Oncology Limited, priority 2005, dated 2015).

The nature of series [1]: Average particle size of the nanoparticles in the pharmaceutical composition. The format is physicochemical. The following applies: 1 ml ethanol solution into ≈35 ml. The text has this: (§1) This could be exemplified with respect to pharmaceutical compositions of two poorly water-soluble anticancer drugs or compounds, viz.
Series [2] in a line: Clarity of the solution of the nanoparticulate composition. The format is physicochemical.
Text: as §1

The nature of series [3]: Stability: hours the drug remains in solution without precipitation.
Text: By reference to the term “stability”, it is to be construed to mean the period, counted in hours, wherein the poorly water-soluble drug or compound remains in solution in the pharmaceutical composition comprising the same, without any precipitation of the drug or compound from therein.
Where [4] appears, read: 1 ml ethanol solution into ≈35 ml, needle 0.305 mm, addition 3 Secs.
[5] abbreviates: 1 ml ethanol solution into ≈35 ml, needle 1.270 mm, addition 2 Secs.
[6] abbreviates: 1 ml ethanol solution into ≈35 ml, needle 1.270 mm, addition 6 Secs.
Where [7] appears, read: 15 ml ethanol solution into ≈500 ml, needle 0.330 mm, addition 18 Secs.
The mark [8] stands for this setting: 15 ml ethanol solution into ≈500 ml, needle 0.711 mm, addition 10 Secs.

Consider `C=C(C)[C@@H]1CC[C@]2(C(=O)O)CC[C@]3(C)C(CCC4[C@@]5(C)Cc6c([nH]c7ccc(Cl)cc67)C(C)(C)C5CC[C@]43C)C12` (stereo partly drawn) [DRF-4012], for which the “Average Particle Size (nm)” value came to 200 nm in series [1] (needle 0.305 mm, addition 6 Secs); 90 nm in series [1] (needle 0.465 mm, addition 2 Secs); 200 nm in series [1] (needle 0.467 mm, addition 6 Secs); 100 nm in series [1] (needle 0.711 mm, addition 2 Secs); 240 nm in series [1] (needle 0.711 mm, addition 6 Secs); 130 nm in series [1] (needle 1.270 mm, addition 2 Secs). In addition, the “Average Particle Size (nm)” value in series [1] (needle 1.270 mm, addition 6 Secs) turned out to be 8100 nm; in series [1] (nanoparticles with the polymer, needle 0.305 mm, addition 3 Secs) it was 70 nm. Also, the results for the “Clarity Of The Solution” value in series [2] (setting [4]), in series [2] (setting [5]) and in series [2] (setting [6]) were “Clear”, “Opalescent” and “Milky”, respectively.

In the case of `CC(=O)O[C@H]1C(=O)[C@@]2(C)[C@H]([C@H](OC(=O)c3ccccc3)[C@]3(O)C[C@H](OC(=O)[C@H](O)[C@@H](NC(=O)c4ccccc4)c4ccccc4)C(C)=C1C3(C)C)[C@]1(OC(C)=O)CO[C@@H]1C[C@@H]2O` [Paclitaxel], the “Clarity Of The Solution” value is given as “Clear” in series [2] (setting [4]); “Opalescent” in series [2] (setting [5]); “Milky” in series [2] (setting [6]); “Clear” in series [2] (setting [7]); “Clear” in series [2] (setting [8]). Moreover, the “Stability” value in series [3] (setting [4]) was >24 h; in series [3] (1 ml ethanol solution into ≈35 ml, needle 0.305 mm, addition 6 Secs) it was <4 h; in series [3] (1 ml ethanol solution into ≈35 ml, needle 0.467 mm, addition 2 Secs), 20 h; in series [3] (1 ml ethanol solution into ≈35 ml, needle 0.467 mm, addition 6 Secs), <2 h; in series [3] (1 ml ethanol solution into ≈35 ml, needle 0.711 mm, addition 2 Secs) it was <10 h; in series [3] (1 ml ethanol solution into ≈35 ml, needle 0.711 mm, addition 6 Secs), <2 h. The “Stability” value in series [3] (setting [5]) is <4 h; in series [3] (setting [6]) it was <0.5 h; in series [3] (setting [7]) it was 20 h; in series [3] (setting [8]) it was >24 h; in series [3] (15 ml ethanol solution into ≈500 ml, needle 0.711 mm, addition 15 Secs), <15 h.
